For this assay, the target named is T1, Human FXRα Ligand Binding Domain (FXRα LBD) (Homo sapiens, UniProt Q96RI1).
T1 construct: polyhistidine (N); made in house; host or cells: E. coli BL21 (DE3), pRSET-A vector
T1 sequence (Q96RI1 222-472 isoform Q96RI1-2): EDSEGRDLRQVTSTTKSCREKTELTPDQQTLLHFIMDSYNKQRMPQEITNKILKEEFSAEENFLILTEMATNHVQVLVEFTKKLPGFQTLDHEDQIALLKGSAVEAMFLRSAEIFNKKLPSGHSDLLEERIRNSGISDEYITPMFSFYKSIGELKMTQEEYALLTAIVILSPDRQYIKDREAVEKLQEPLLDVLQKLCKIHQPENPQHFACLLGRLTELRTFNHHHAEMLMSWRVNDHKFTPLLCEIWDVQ
Nature of the assay: FXR Affinity Binding Assay: ligand mediated cofactor peptide (SRC-1 LCD2, 676-700) interaction, time resolved fluorescence. To be noted: FXRα LBD-APC / europium labeled SRC-1 peptide, TRF signal, at least 2 hours at room temperature; read-out: Activity (pEC50) (converted).

Each structure is given as a SMILES string.

In the case of `COC(=O)c1cccc(COc2ccc(OCc3c(-c4c(Cl)cccc4Cl)noc3C(C)C)cc2Cl)c1` [Example 99, Methyl 3-[(2-chloro-4-{[3-(2,6-dichlorophenyl)-5-isopropylisoxazol-4-yl]methoxy}-phenoxy)methyl]benzoate], the EC50 is 1.02 to 10 µM.

As to `COC(=O)c1cccc(COc2ccc(OCc3c(-c4c(Cl)cccc4Cl)noc3C(C)C)cc2C)c1` [Example 100, Methyl 3-[(4-{[3-(2,6-dichlorophenyl)-5-isopropylisoxazol-4-yl]methoxy}-2-methyl-phenoxy)methyl]benzoate], the EC50 was 0.102 to 1 µM.

On to `CC(C)c1onc(-c2c(Cl)cccc2Cl)c1COc1ccc(OCc2cccc(C(=O)O)c2)c(Cl)c1` [Example 101, 3-[(2-Chloro-4-{[3-(2,6-dichlorophenyl)-5-isopropylisoxazol-4-yl]methoxy}phenoxy)-methyl]benzoic acid], for which the EC50 is 0.102 to 1 µM.

For the compound `Cc1cc(OCc2c(-c3c(Cl)cccc3Cl)noc2C(C)C)ccc1OCc1cccc(C(=O)O)c1` [Example 102, 3-[(4-{[3-(2,6-Dichlorophenyl)-5-isopropylisoxazol-4-yl]methoxy}-2-methylphenoxy)-methyl]benzoic acid], the EC50 was 0.102 to 1 µM.

The values are drawn from patent US7319109B2, “Farnesoid X receptor agonists” (Smith Kline Beecham Corporation, priority 2002, dated 2008).
